# Test results as given in patent US20190060249A1 (priority 2017, published 2019).
# Tests used:
# [1] = target: T1, ALDH2 (Homo sapiens, UniProt P05091); test: ALDH enzymatic assay, recombinant ALDH2; type: biochemical; conditions: 5 μg/ml recombinant enzyme, 10 mM acetaldehyde, 20 μM Alda-341
# T1 sequence (P05091 18-517): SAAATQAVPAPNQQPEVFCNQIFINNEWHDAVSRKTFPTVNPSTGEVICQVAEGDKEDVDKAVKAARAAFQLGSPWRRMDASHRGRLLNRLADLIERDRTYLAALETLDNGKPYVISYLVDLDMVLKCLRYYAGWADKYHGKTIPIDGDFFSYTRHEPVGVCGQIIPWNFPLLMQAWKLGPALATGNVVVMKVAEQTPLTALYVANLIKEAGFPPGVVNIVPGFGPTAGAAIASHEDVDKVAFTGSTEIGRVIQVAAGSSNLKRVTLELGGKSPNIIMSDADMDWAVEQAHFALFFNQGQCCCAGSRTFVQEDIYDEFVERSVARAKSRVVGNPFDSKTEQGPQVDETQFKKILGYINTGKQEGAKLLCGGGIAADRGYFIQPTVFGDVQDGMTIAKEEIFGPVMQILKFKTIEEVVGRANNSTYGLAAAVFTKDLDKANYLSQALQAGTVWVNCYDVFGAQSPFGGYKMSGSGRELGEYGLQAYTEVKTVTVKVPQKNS
# Protocol: ALDH enzymatic assay: ALDH1A1, ALDH1A2, 2, 3A1, 3A2, 4A1, 5A1, 7A1 were measured as previously described using 5 μg/ml of recombinant protein (Chen, C. H., Cruz, L. A., and Mochly-Rosen, D. (2015) Pharmacological recruitment of aldehyde dehydrogenase 3A1 (ALDH3A1) to assist ALDH2 in acetaldehyde and ethanol metabolism in vivo. Proceedings of the National Academy of Sciences of the United States of America 112, 3074-3079). […] Assays were conducted in 50 mM NaPPi buffer (pH 7.4) in the presence of 2.5 mM NAD^+ and 10 mM substrate and measured in triplicate at 25° C. Dose response curve fits and EC50's were calculated using GraphPad Prism 7 software.
# [2] = system: E13.5 embryonic SMG epithelia; test: Embryonic epithelial rudiment cultures; type: cell-based, mouse
# Text: Embryonic epithelial rudiment cultures: Epithelia and mesenchyme were separated using dispase treatment and mechanical dissection and cultured in a drop of laminin on a nucleopore filter over serum-free DMEM/F12 containing holotransferrin and ascorbic acid (complete media) as described for the E13 submandibular gland (Steinberg, Z., Myers, C., Heim, V. M., Lathrop, C. A., Rebustini, I. T., Stewart, J. S., Larsen, M., and Hoffman, M. P. (2005) FGFR2b signaling regulates ex vivo submandibular gland epithelial cell proliferation and branching morphogenesis. Development (Cambridge, England) 132, 1223-1234). Epithelia were cultured with 400 ng/ml FGF10 (R&D Systems) and 0.5 μl/ml heparin sulfate (Sigma Aldrich) in the presence or absence of 25-200 μM ALDH341 or vehicle (PEG) and were subjected to RNA isolation or fixed for immunostaining after 24-48 h.
# N=6-7 epithelia per group.
# […] confocal section of all three markers (top) and averaged confocal sections of c-KIT only (bottom).
# Samples were tested in triplicate.
# Immunohistochemistry: Embryonic rudiment immunofluorescence analysis has been previously described in, Knox, S. M., Lombaert, I. M., Reed, X., Vitale-Cross, L., Gutkind, J. S., and Hoffman, M. P. (2010) Parasympathetic innervation maintains epithelial progenitor cells during salivary organogenesis. Science (New York, N.Y.) 329, 1645-1647. In brief, tissue was fixed with 4% PFA for 20-30 min followed by permeabilizing with 0.1-0.3% Triton-X. Tissue was blocked overnight at 4° C. with 10% Donkey Serum (Jackson Laboratories), 1% BSA (Sigma Aldrich), and MOM IgG-blocking reagent (Vector Laboratories) in 0.01% PBS-Tween-20. SGs were incubated with primary antibodies overnight at 4° C.: rabbit anti-cKIT (1:200, Santa Cruz Biotech, M14), and rat anti-E-cadherin (1:300, Life Technologies, 13-1900). Antibodies were detected using Cy2-, Cy3- or Cy5-conjugated secondary Fab fragment antibodies (Jackson Laboratories) and nuclei stained using Hoescht 33342 (1:1000, Sigma Aldrich). Fluorescence was analyzed using a Leica Sp5 confocal microscope and NIH ImageJ software.
# qPCR: RNA was isolated from whole tissue using RNAqueous Micro Kit (Ambion). Total RNA samples were DNase-treated (Ambion), prior to cDNA synthesis using SuperScript reagents (Invitrogen). SYBRgreen qPCR was performed using 1 ng of cDNA and primers designed using Primer3 and Beacon Designer software or found using PrimerBank (http://pga.mgh.harvard.edu/primerbank/). Melt-curves and primer efficiency were determined as previously described (Hoffman, M. P., Kidder, B. L., Steinberg, Z. L., Lakhani, S., Ho, S., Kleinman, H K., and Larsen, M. (2002) Gene expression profiles of mouse submandibular gland development: FGFR1 regulates branching morphogenesis in vitro through BMP- and FGF-dependent mechanisms. Development (Cambridge, England) 129, 5767-5778). Gene expression was normalized to the housekeeping gene S29 (Rps29).
# [3] = system: SAS (human papillomavirus [HPV]-negative) head and neck squamous cell carcinoma cell line; test: Xenograft study, SAS; type: in vivo, SCID mice; conditions: Alda-341 from one week ahead of irradiation, during and post; 30 Gy over 5 fractions
# Protocol: Xenograft study: Six-week old SCID mice were purchased from the Jackson laboratory and five mice per group were used. SCC90 and SAS cells (2×10^6 cells/injection) were implanted into both flanks of each mouse. Alda-341 treated one week ahead of irradiation and continued during and post radiation. Total 30 Gy over 5 fractions in a week was delivered to the tumor with the rest of the body shielded. Tumor size was measured every 1-2 days. Tumor volume was calculated by the formula (π×length×width×height)/6.
# [4] = 200 μM Alda-341, RT-qPCR vs vehicle control
structure (smiles),measurement,setting,value
"C=C(C)[C@H]1CC=C(C)CC1 [Alda-341, D-limonene]",catalytic activity of ALDH2,[1],did not increase
same,localisation of c-Kit+ cells (immunofluorescence),"[2]; 200 μM Alda-341, 24 h",limited to the end buds only
same,expression of acinar progenitor marker Sox10,[2]; [4],Increased expression
same,transcript level of acinar maturation marker Aqp5,[2]; [4],increased transcript levels
same,transcript level of acinar maturation marker Mist1,[2]; [4],increased transcript levels
same,number of end buds,"[2]; cultured 24 h, 100 μM and 200 μM Alda-341",dose-dependent increase
same,epithelial area,"[2]; cultured 24 h, 100 μM and 200 μM Alda-341, normalized to vehicle control",dose-dependent increase
same,"tumor growth and protection of tumors from radiation, SAS xenograft",[3],did not increase tumor growth or protect tumors from radiation
